Patent US20100184596A1, “METHOD FOR THE CONTROL OF WEEDS IN TURF” (SYNGENTA CROP PROTECTION, INC., priority 2007, published 2010)

Key:
Assay type in all cases: in vivo
[1] = tested on: Trifolium repens (clover); experiment: Weed control via post emergence spray, in bluegrass/fescue mix (Table B5.6)
Method: (§1) The weed control efficacy of the compound of formula I was tested. The compound was applied via post emergence spray to a range of weeds, at various rates and spray treatment treatment regimes. Percentage weed control assessments were taken at various timepoints.

Tall fescue v. Coronado = experiment: Phytotoxicity via granule application, various inert granules (Table B3.3); settings: 8 DAT
Method: The phytotoxicity of the compound of formula I to turfgrass species was tested. The compound was applied by distribution of granule formulations of formula I, post emergence, to turfgrass species at two rates. All treatments were watered-in 1 day after application. Percentage phytotoxicity assessments were taken at various timepoints.
In Tables B3.3 and B3.4, the granular formulations tested were made by spraying the compound of formula I onto various inert granules. In each of these trials, the granule formulations were tested at a higher rate than the corresponding spray application

Zoysiagrass v. Meyer = experiment: Phytotoxicity via post emergence spray application (Table B2.2)
Method: The phytotoxicity of the compound of formula I to turfgrass species was tested. The compound was applied via post emergence spray to a range of warm and cool season turfgrass species at various rates and spray treatment treatment regimes. Percentage phytotoxicity assessments were taken at various timepoints.

[2] = tested on: Trifolium repens (white clover); experiment: Weed control of granule formulations, in St. Augustinegrass V. Delmar (Table B6.1)
Method: Two granule formulations were made and tested. Granule A is an inert granule formulation, comprising 99.06 wt % DG Lite 150 granules, 0.14 wt % compound of formula I, 0.50 wt % Sunspray 6N, and 0.30 wt % HiSil 233. The compound of formula I was added to the DG Lite granules while blending in a Continental Rollo-mixer.
Sunspray 6N oil was then sprayed onto the granules, and HiSil added to dry excess liquid and improve granule flowability. The granules were blended in the mixer for 20-30 minutes until homogeneous, and passed through a −12/+60 mesh to remove over and under sized particles.
Granule B is a fertiliser granule formulation, comprising 54.65 wt % urea, 6.63 wt % triple super phosphate, 4.95 wt % potassion chloride, 9.91 wt % huber clay, 7.22 wt % HiSil 233, 0.16 wt % compound of formula I, […] agnique ME 181, 2.07 wt % stepfac 8180, and 11.98 wt % water. […] The remaining HiSil was added and granules dried at 40-60° C., to remove excess liquid. Finally, the granules were passed through a −12/+60 mesh to remove over and under sized particles.
The weed control efficacy of the compound of formula I was tested. […] All treatments were watered-in 1 day after application. Percentage weed control assessments were taken at various timepoints.

[3] = tested on: Hydrocotyle sp. (dollarweed); experiment: Weed control via post emergence spray, in St. Augustinegrass v. Floratam (Table B5.3)
Method: as §1

COCCOCc1nc(C(F)(F)F)ccc1C(=O)C1=C(O)C2CCC(C2)C1=O (centres unmarked) [Formula I, 4-Hydroxy-3-[2-(2-methoxyethoxymethyl)-6-trifluoromethylpyridine-3-carbonyl]-bicyclo[3.2.1]oct-3-en-2-one]
% control ([1]; 10 g ai/ha, 7 DAT): 0.00% | % control ([1]; 10 g ai/ha, 14 DAT): 21.25% | % control ([1]; 10 g ai/ha, 22 DAT): 23.75% | % control ([1]; 10 g ai/ha, 29 DAT): 8.75% | % control ([1]; 10 g ai/ha, 46 DAT): 10.00% | % control ([1]; 20 g ai/ha, 7 DAT): 0.00% | % control ([1]; 20 g ai/ha, 14 DAT): 22.50% | % control ([1]; 20 g ai/ha, 22 DAT): 28.75% | % control ([1]; 20 g ai/ha, 29 DAT): 22.50% | % control ([1]; 20 g ai/ha, 46 DAT): 28.75% | % control ([1]; 40 g ai/ha, 7 DAT): 11.25% | % control ([1]; 40 g ai/ha, 14 DAT): 21.25% | % control ([1]; 40 g ai/ha, 22 DAT): 22.50% | % control ([1]; 40 g ai/ha, 29 DAT): 35.00% | % control ([1]; 40 g ai/ha, 46 DAT): 47.50% | % control ([1]; 80 g ai/ha, 7 DAT): 17.50% | % control ([1]; 80 g ai/ha, 14 DAT): 22.50% | % control ([1]; 80 g ai/ha, 22 DAT): 30.00% | % control ([1]; 80 g ai/ha, 29 DAT): 52.50% | % control ([1]; 80 g ai/ha, 46 DAT): 81.25% | % control ([1]; 160 g ai/ha, 7 DAT): 22.50% | % control ([1]; 160 g ai/ha, 14 DAT): 27.50% | % control ([1]; 160 g ai/ha, 22 DAT): 41.25% | % control ([1]; 160 g ai/ha, 29 DAT): 76.25% | % control ([1]; 160 g ai/ha, 46 DAT): 91.25% | % phytotoxicity (Tall fescue v. Coronado; Agsorb LUM GA granule, 680 g ai/ha): 23.8% | % phytotoxicity (Tall fescue v. Coronado; Agsorb LUM MS granule, 680 g ai/ha): 9.3% | % phytotoxicity (Tall fescue v. Coronado; Agsorb RUM GA granule, 680 g ai/ha): 18.8% | % phytotoxicity (Tall fescue v. Coronado; Bio Dac granule, 680 g ai/ha): 13.8% | % phytotoxicity (Tall fescue v. Coronado; DG Lite granule, 680 g ai/ha): 20.0% | % phytotoxicity (Tall fescue v. Coronado; Eco Gran granule, 680 g ai/ha): 20.0% | % phytotoxicity (Tall fescue v. Coronado; Non dispersing extruded granules, 680 g ai/ha): 21.3% | % phytotoxicity (Tall fescue v. Coronado; Oil dry granule, 680 g ai/ha): 12.5% | % phytotoxicity (Tall fescue v. Coronado; Spray, 340 g ai/ha): 18.8% | % phytotoxicity (Zoysiagrass v. Meyer; 1 appl, 140 g ai/ha, 8 DAT): 42.50% | % phytotoxicity (Zoysiagrass v. Meyer; 1 appl, 140 g ai/ha, 14 DAT): 51.25% | % phytotoxicity (Zoysiagrass v. Meyer; 1 appl, 140 g ai/ha, 29 DAT): 41.25% | % phytotoxicity (Zoysiagrass v. Meyer; 1 appl, 140 g ai/ha, 35 DAT): 25.00% | % phytotoxicity (Zoysiagrass v. Meyer; 1 appl, 140 g ai/ha, 43 DAT): 7.50% | % phytotoxicity (Zoysiagrass v. Meyer; 1 appl, 140 g ai/ha, 51 DAT): 5.00% | % phytotoxicity (Zoysiagrass v. Meyer; 1 appl, 140 g ai/ha, 60 DAT): 0.00% | % phytotoxicity (Zoysiagrass v. Meyer; 1 appl, 280 g ai/ha, 8 DAT): 45.00% | % phytotoxicity (Zoysiagrass v. Meyer; 1 appl, 280 g ai/ha, 14 DAT): 57.50% | % phytotoxicity (Zoysiagrass v. Meyer; 1 appl, 280 g ai/ha, 29 DAT): 61.25% | % phytotoxicity (Zoysiagrass v. Meyer; 1 appl, 280 g ai/ha, 35 DAT): 28.75% | % phytotoxicity (Zoysiagrass v. Meyer; 1 appl, 280 g ai/ha, 43 DAT): 8.75% | % phytotoxicity (Zoysiagrass v. Meyer; 1 appl, 280 g ai/ha, 51 DAT): 3.75% | % phytotoxicity (Zoysiagrass v. Meyer; 1 appl, 280 g ai/ha, 60 DAT): 0.00% | % phytotoxicity (Zoysiagrass v. Meyer; 2 appl, 140 g ai/ha, 8 DAT): 33.75% | % phytotoxicity (Zoysiagrass v. Meyer; 2 appl, 140 g ai/ha, 14 DAT): 47.50% | % phytotoxicity (Zoysiagrass v. Meyer; 2 appl, 140 g ai/ha, 29 DAT): 17.50% | % phytotoxicity (Zoysiagrass v. Meyer; 2 appl, 140 g ai/ha, 35 DAT): 43.75% | % phytotoxicity (Zoysiagrass v. Meyer; 2 appl, 140 g ai/ha, 43 DAT): 27.50% | % phytotoxicity (Zoysiagrass v. Meyer; 2 appl, 140 g ai/ha, 51 DAT): 8.75% | % phytotoxicity (Zoysiagrass v. Meyer; 2 appl, 140 g ai/ha, 60 DAT): 0.00% | % phytotoxicity (Zoysiagrass v. Meyer; 2 appl, 280 g ai/ha, 8 DAT): 38.75% | % phytotoxicity (Zoysiagrass v. Meyer; 2 appl, 280 g ai/ha, 14 DAT): 57.50% | % phytotoxicity (Zoysiagrass v. Meyer; 2 appl, 280 g ai/ha, 29 DAT): 52.50% | % phytotoxicity (Zoysiagrass v. Meyer; 2 appl, 280 g ai/ha, 35 DAT): 47.50% | % phytotoxicity (Zoysiagrass v. Meyer; 2 appl, 280 g ai/ha, 43 DAT): 28.75% | % phytotoxicity (Zoysiagrass v. Meyer; 2 appl, 280 g ai/ha, 51 DAT): 12.50% | % phytotoxicity (Zoysiagrass v. Meyer; 2 appl, 280 g ai/ha, 60 DAT): 0.00% | % control ([2]; Granule A (inert), 112 g ai/ha, 7 DAT): 46.70% | % control ([2]; Granule A (inert), 112 g ai/ha, 11 DAT): 63.30% | % control ([2]; Granule A (inert), 112 g ai/ha, 15 DAT): 66.70% | % control ([2]; Granule A (inert), 112 g ai/ha, 20 DAT): 63.30% | % control ([2]; Granule A (inert), 112 g ai/ha, 28 DAT): 50.00% | % control ([2]; Granule A (inert), 280 g ai/ha, 7 DAT): 56.70% | % control ([2]; Granule A (inert), 280 g ai/ha, 11 DAT): 76.70% | % control ([2]; Granule A (inert), 280 g ai/ha, 15 DAT): 78.30% | % control ([2]; Granule A (inert), 280 g ai/ha, 20 DAT): 70.00% | % control ([2]; Granule A (inert), 280 g ai/ha, 28 DAT): 51.70% | % control ([2]; Granule B (fertiliser), 112 g ai/ha, 7 DAT): 53.30% | % control ([2]; Granule B (fertiliser), 112 g ai/ha, 11 DAT): 70.00% | % control ([2]; Granule B (fertiliser), 112 g ai/ha, 15 DAT): 76.70% | % control ([2]; Granule B (fertiliser), 112 g ai/ha, 20 DAT): 75.00% | % control ([2]; Granule B (fertiliser), 112 g ai/ha, 28 DAT): 70.00% | % control ([2]; Granule B (fertiliser), 280 g ai/ha, 7 DAT): 66.70% | % control ([2]; Granule B (fertiliser), 280 g ai/ha, 11 DAT): 80.00% | % control ([2]; Granule B (fertiliser), 280 g ai/ha, 15 DAT): 85.00% | % control ([2]; Granule B (fertiliser), 280 g ai/ha, 20 DAT): 88.30% | % control ([2]; Granule B (fertiliser), 280 g ai/ha, 28 DAT): 81.70% | % control ([2]; Spray, 112 g ai/ha, 7 DAT): 63.30% | % control ([2]; Spray, 112 g ai/ha, 11 DAT): 78.30% | % control ([2]; Spray, 112 g ai/ha, 15 DAT): 81.70% | % control ([2]; Spray, 112 g ai/ha, 20 DAT): 76.70% | % control ([2]; Spray, 112 g ai/ha, 28 DAT): 76.70% | % control ([2]; Spray, 280 g ai/ha, 7 DAT): 71.70% | % control ([2]; Spray, 280 g ai/ha, 11 DAT): 86.70% | % control ([2]; Spray, 280 g ai/ha, 15 DAT): 90.00% | % control ([2]; Spray, 280 g ai/ha, 20 DAT): 91.70% | % control ([2]; Spray, 280 g ai/ha, 28 DAT): 76.70% | % control ([3]; 1 appl, 140 g ai/ha, 5 DAT): 10.00% | % control ([3]; 1 appl, 140 g ai/ha, 13 DAT): 60.00% | % control ([3]; 1 appl, 140 g ai/ha, 21 DAT): 50.00% | % control ([3]; 1 appl, 280 g ai/ha, 5 DAT): 15.00% | % control ([3]; 1 appl, 280 g ai/ha, 13 DAT): 57.50% | % control ([3]; 1 appl, 280 g ai/ha, 21 DAT): 60.00% | % control ([3]; 2 appl, 140 g ai/ha, 5 DAT): 15.00% | % control ([3]; 2 appl, 140 g ai/ha, 13 DAT): 55.00% | % control ([3]; 2 appl, 140 g ai/ha, 21 DAT): 52.50% | % control ([3]; 2 appl, 280 g ai/ha, 5 DAT): 20.00% | % control ([3]; 2 appl, 280 g ai/ha, 13 DAT): 65.00% | % control ([3]; 2 appl, 280 g ai/ha, 21 DAT): 62.50%
